Data on three compounds can be found in EP2100593B1, “Ternary mixtures with increased collagen synthesis” (Symrise AG, priority 2008, dated 2009).

The subject of the test is Normal Humane Dermalen Fibroblasten (NHDF). The experiment in a line: Collagen synthesis stimulation in aged NHDF monolayer culture, Sirius Red staining (OD 540 nm). The settings on record: 48 h incubation. Type of test: cell-based, Human. From the text:
Verantwortlich für die Collagensynthese in der Dermis-Schicht der Haut sind Fibroblasten. Als Testsystem werden Normal Humane Dermalen Fibroblasten (NHDF) in einer so genannten Monolayer-Kultur in 96-Well-MTPs kultiviert, über einen definierten Zeitraum mit Testsubstanzen inkubiert und anschließend die Collagenzunahme […] über eine Färbemethode bestimmt.
Das Assay-Prinzip basiert auf der histologischen, spezifischen Anfärbung von löslichem Collagen (vorwiegend Collagen Typ I und III) mit Hilfe des Farbstoffes Sirius Red (Direct Red 80). Sirius Red ist ein anionischer Farbstoff an dessen Seitenketten Sulphonsäuregruppen angelagert sind. Diese Sulphonsäuregruppen reagieren mit den Seitenkettengruppen der im Collagen vorwiegend vorkommenden Aminosäuren (Prolin, Hydroxyprolin, Lysin und Hydroxylysin), wobei eine intakte Collagenstruktur gegeben sein muss. [drawing 1]
Als Vorlage für das Assay-Design dient die bei B.J.Walsh et al., Analytical Biochemistry 203, 187-190 (1992) beschriebene Vorgehensweise zur quantitativen Bestimmung von Collagen im 96-Well Maßstab.
Die Collagensynthese steigernde Wirkung der Testsubstanzen wird an in vitro gealterten (>8. Passage) NHDF in 96-Well Mikrotiterplatten (2*10^4 Zellen pro Well) getestet. Für jedes Prüfmuster muss zuvor ein geeignetes Lösungsmittel ermittelt werden, in dem eine Stocklösung des Prüfmusters angesetzt wird. Die Inkubationslösungen der Testsubstanzen werden anschließend in mit 0,2% BSA supplementiertem DMEM hergestellt. Mögliche Lösungsmittel sollten in allen Verdünnung der Inkubationslösung max. 0,2 %ig vorliegen. Die maximale Einsatzkonzentration der Testsubstanzen resultiert aus den in der Zytotoxizitäts-Untersuchung (Resazurin-Assay an 3T3 Maus Fibroblasten) gewonnen IC20-Werten und ist auf 0,1*IC20 festgelegt.
Nach einer 24h-igen Adaptionsphase der NHDF werden die Zellen für 48 h mit den Inkubationslösungen und entsprechenden Kontroll-Lösungen (Lösungsmittel und Blank) inkubiert (37°C, 5% CO2). […]

Setting [1] is: Tabelle 2, Einsatzkonzentration 1.020 mg/ml.

Values joined by “and” are separate entries in the source; they are usually repeats but may differ in a detail not shown here. Identical values can stand only once.

As for `O=C1O[C@H]([C@@H](O)CO)C(O)=C1OP(=O)(O)O` [Magnesium Ascorbylphosphat (Bio172), Magnesium Ascorbylphosphat], the “Collagensynthese Steigerung [%], bezogen auf unbehandelte Kontrolle” value (“Collagensynthese Steigerung [%]” below) (Tabelle 1, Einsatzkonzentration 0.362 mg/ml) is 66.97% and 67.44%. As for `O=C1O[C@H]([C@@H](O)CO)C([O-])=C1OP(=O)([O-])[O-].O=C1O[C@H]([C@@H](O)CO)C([O-])=C1OP(=O)([O-])[O-].[Mg+2].[Mg+2].[Mg+2]` [Magnesium Ascorbylphosphat (Bio1300/1), Magnesium Ascorbylphosphat], the “Collagensynthese Steigerung [%]” value under setting [1] stood at 141.13%.

On to `O=C1O[C@H]([C@@H](O)CO)C([O-])=C1OP(=O)([O-])[O-].[Na+].[Na+].[Na+]` [Natrium Ascorbylphosphat (Bio1586), Natrium Ascorbylphosphat], for which, under setting [1], the “Collagensynthese Steigerung [%]” value amounted to 144.57%.
